Literature values as cited in US12378302B2, “Fusion molecules and uses thereof” (Foundation Medicine, Inc., priority 2012, dated 2025).
pEC50, pIC50: −log10 of the molar value. One block for each compound: values may come before it.

Legend:
MEK1 = MEK1 (Homo sapiens, UniProt Q02750); settings: read-out: IC50 against MEK1
[1] = system: Erk1, MKK3, MKK4, c-JUN, PKC, PKA, or CamKII
MEK2 = MEK2 (Homo sapiens, UniProt P36507); settings: read-out: IC50 against MEK2
[2] = system: IGF-1R, Met, Src, Lck, Zap70, Abl and CDK2
[3] = system: Flk-1 and FGFR1 trans-phosphorylation
[4] = system: MEK1, MEK2, ERK2, and JNK2
[5] = system: Abl1, AKT3, c-RAF, CamK1, CDK2, c-Met
[6] = system: cytokine production such as IL-1, TNF and IL-6; settings: clinical trials
MEK1/2 = settings: read-out: IC50 against MEK1/2
PDGFR = settings: read-out: IC50 against PDGFR
EGFR = EGFR (Homo sapiens, UniProt P00533)
[7] = system: HCV replicon genotypes and the JFH-1 genotype 2a infectious virus (HCV NS5A); settings: cell culture
MEK = settings: read-out: IC50 against MEK
CSF-1R = CSF-1R (Homo sapiens, UniProt P07333); settings: read-out: IC50 against CSF-1R
CSF-1R, sequence (P07333 20-972, species assumed): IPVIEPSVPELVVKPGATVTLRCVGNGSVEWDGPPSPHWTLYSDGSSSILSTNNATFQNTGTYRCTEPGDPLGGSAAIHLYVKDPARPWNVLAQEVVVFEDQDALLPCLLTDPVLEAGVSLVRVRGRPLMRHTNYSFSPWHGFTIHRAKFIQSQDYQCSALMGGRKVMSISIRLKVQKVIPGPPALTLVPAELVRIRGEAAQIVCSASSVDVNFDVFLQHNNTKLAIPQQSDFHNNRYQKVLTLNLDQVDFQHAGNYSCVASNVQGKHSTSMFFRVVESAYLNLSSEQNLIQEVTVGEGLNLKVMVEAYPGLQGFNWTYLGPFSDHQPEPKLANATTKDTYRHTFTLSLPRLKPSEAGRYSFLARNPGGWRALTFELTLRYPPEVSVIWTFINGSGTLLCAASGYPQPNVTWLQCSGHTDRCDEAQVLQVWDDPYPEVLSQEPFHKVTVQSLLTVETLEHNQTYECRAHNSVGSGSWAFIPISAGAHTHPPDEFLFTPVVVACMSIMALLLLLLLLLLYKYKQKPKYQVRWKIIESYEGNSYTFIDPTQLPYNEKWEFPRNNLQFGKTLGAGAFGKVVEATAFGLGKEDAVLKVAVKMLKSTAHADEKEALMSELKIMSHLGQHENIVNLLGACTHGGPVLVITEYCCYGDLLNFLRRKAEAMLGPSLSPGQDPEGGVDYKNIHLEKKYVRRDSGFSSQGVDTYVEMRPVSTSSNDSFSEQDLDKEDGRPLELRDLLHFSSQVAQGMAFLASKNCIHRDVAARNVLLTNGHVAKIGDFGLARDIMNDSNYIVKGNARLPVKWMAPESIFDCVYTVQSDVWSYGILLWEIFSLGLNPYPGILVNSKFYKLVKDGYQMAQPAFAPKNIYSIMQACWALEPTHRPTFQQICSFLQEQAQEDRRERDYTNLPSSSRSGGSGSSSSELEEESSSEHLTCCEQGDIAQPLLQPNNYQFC

MEK1, sequence (Q02750 whole entry, species assumed): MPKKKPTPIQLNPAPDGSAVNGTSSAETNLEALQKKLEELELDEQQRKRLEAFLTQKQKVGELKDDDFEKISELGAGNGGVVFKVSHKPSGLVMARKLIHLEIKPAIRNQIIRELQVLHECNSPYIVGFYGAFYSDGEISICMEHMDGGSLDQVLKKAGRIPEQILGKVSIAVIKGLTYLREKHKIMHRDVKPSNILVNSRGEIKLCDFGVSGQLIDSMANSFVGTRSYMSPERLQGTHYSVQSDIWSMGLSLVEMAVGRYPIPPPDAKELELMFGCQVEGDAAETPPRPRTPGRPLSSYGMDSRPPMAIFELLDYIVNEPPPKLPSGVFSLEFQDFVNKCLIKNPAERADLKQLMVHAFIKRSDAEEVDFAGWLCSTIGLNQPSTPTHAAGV
EGFR, sequence (P00533 25-1210): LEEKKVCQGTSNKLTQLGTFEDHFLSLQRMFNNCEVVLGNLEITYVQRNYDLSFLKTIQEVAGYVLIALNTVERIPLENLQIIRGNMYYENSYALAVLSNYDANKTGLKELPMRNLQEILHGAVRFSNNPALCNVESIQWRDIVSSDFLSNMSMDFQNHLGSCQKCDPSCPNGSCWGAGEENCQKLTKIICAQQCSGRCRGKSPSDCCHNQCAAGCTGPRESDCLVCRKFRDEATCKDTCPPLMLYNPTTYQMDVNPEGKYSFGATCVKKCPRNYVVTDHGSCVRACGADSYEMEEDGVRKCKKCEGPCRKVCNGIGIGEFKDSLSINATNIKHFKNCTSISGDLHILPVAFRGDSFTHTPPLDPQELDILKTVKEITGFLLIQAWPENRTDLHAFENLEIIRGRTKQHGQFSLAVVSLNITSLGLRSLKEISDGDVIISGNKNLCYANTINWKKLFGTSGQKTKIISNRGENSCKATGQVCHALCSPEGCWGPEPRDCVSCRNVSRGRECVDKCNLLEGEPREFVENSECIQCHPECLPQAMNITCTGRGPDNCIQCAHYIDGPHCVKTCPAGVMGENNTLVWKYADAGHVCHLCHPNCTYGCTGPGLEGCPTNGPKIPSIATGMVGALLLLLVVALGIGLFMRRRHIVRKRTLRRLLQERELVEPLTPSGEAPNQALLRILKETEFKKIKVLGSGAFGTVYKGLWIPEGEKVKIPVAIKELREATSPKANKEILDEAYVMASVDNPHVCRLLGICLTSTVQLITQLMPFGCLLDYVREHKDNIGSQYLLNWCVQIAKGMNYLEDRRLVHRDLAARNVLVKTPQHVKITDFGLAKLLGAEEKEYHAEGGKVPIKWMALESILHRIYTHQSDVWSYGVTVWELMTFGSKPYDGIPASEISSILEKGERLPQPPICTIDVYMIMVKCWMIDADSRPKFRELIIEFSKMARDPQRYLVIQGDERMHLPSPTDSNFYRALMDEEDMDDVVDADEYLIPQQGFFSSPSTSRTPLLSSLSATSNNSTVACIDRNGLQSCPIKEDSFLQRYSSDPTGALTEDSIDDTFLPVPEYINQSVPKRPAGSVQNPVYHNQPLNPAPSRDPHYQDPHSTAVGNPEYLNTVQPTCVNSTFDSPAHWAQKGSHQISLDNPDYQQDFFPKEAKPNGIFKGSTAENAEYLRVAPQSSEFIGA
MEK2, sequence (P36507 whole entry, species assumed): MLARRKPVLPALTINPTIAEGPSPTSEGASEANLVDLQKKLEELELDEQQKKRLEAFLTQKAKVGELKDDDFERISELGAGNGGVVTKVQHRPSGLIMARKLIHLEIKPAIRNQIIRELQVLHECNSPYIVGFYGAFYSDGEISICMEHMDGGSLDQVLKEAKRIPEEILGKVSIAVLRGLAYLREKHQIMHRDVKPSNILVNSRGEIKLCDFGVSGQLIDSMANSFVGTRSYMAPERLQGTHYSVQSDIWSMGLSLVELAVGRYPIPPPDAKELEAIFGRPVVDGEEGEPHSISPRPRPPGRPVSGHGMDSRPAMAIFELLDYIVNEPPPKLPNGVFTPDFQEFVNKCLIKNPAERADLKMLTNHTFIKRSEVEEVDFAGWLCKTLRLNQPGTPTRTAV

SMILES: C=CCc1ccc(O)c(-c2ccc(O)c(CC=C)c2)c1 [Honokiol, 2-(4-hydroxy-3-prop-2-enyl-phenyl)-4-prop-2-enyl-phenol]
Effect on ERK1/2 phosphorylation (ERK1/2 phosphorylation): promotes | Effect on Akt-phosphorylation (Akt-phosphorylation): inhibits

SMILES: Cc1[nH]c(/C=C2\C(=O)Nc3ccccc32)c(C)c1CCC(=O)O [SU6668, (Z)-3-(2,4-dimethyl-5-((2-oxoindolin-3-ylidene)methyl)-1H-pyrrol-3-yl)propanoic acid]
Activity against IGF-1R, Met, Src, Lck, Zap70, Abl and CDK2 [2]: little activity | Inhibition of Flk-1 and FGFR1 trans-phosphorylation [3]: strongly inhibits

SMILES: CN(C)Cc1cccc(N/C(=C2\C(=O)Nc3cc(C(=O)N(C)C)ccc32)c2ccccc2)c1 [BIX 02189, (Z)-3-((3-((dimethylamino)methyl)phenylamino)(phenyl)methylene)-N,N-dimethyl-2-oxoindoline-6-carboxamide]
Inhibition of closely related kinases MEK1, MEK2, ERK2, and JNK2 [4]: does not inhibit

SMILES: COC(=O)N[C@H](C(=O)N1CCC[C@H]1c1ncc(-c2ccc(-c3ccc(-c4cnc([C@@H]5CCCN5C(=O)[C@@H](NC(=O)OC)C(C)C)[nH]4)cc3)cc2)[nH]1)C(C)C [BMS-790052, Carbamic acid, N,N′-[[1,1′-biphenyl]-4,4′-diylbis[1H-imidazole-5,2-diyl-(2S)-2,1-pyrrolidinediyl[(1S)-1-(1-methylethyl)-2-oxo-2,1-ethanediyl]]]bis-,C,C′-dimethyl ester]
pEC50 [7]: 10.30 to 11.05

SMILES: COc1cccc(-c2cc(=O)c3ccccc3o2)c1N [PD98059, 2-(2-amino-3-methoxyphenyl)-4H-chromen-4-one]
pIC50 (MEK): […] | Direct inhibition of ERK1 or ERK2 (ERK1 or ERK2): does not directly inhibit

SMILES: Cc1cc2c(F)c(Oc3ncnn4cc(OC[C@@H](C)O)c(C)c34)ccc2[nH]1 [Brivanib, (R)-1-(4-(4-fluoro-2-methyl-1H-indol-5-yloxy)-5-methylpyrrolo[1,2-f][1,2,4]triazin-6-yloxy)propan-2-ol]
Potency against VEGFR-1 and FGFR-1 (VEGFR-1 and FGFR-1): moderate potency

SMILES: CC(=O)Nc1cccc(-n2c(=O)n(C3CC3)c(=O)c3c(Nc4ccc(I)cc4F)n(C)c(=O)c(C)c32)c1 [Trametinib, N-(3-{3-Cyclopropyl-5-[(2-fluoro-4-iodophenyl)amino]-6,8-dimethyl-2,4,7-trioxo-3,4,6,7-tetrahydropyrido[4,3-d]pyrimidin-1(2H)-yl}phenyl)acetamide]
Kinase activities of c-Raf, B-Raf, ERK1/2 (c-Raf, B-Raf, ERK1/2): does not inhibit

Now from value to compound, other results behind:

pIC50 (MEK1): ~6.74 | pIC50 (MEK2): ~6.66
SMILES: N#C/C(=C(/N)Sc1ccc(N)cc1)c1ccccc1C(F)(F)F [SL327, (Z)-3-amino-3-(4-aminophenylthio)-2-(2-(trifluoromethyl)phenyl) acrylonitrile]
Activity towards Erk1, MKK3, MKK4, c-JUN, PKC, PKA, or CamKII [1]: no activity

pIC50 (MEK1): ~8.49
SMILES: Cn1c(=O)c(F)c(Nc2ccc(I)cc2F)c2c(=O)n(C[C@@H](O)CO)cnc21 [TAK-733, (R)-3-(2,3-dihydroxypropyl)-6-fluoro-5-(2-fluoro-4-iodophenylamino)-8-methylpyrido[2,3-d]pyrimidine-4,7(3H,8H)-dione]
Activity to Abl1, AKT3, c-RAF, CamK1, CDK2, c-Met [5]: inactive

pIC50 (MEK1/2): 7.92 | pIC50 (cellular pERK): 7.96
SMILES: Cn1cnc2c(F)c(Nc3ccc(Br)cc3F)c(C(=O)NOCCO)cc21 [ARRY-162, 5-((4-bromo-2-fluorophenyl)amino)-4-fluoro-N-(2-hydroxyethoxy)-1-methyl-1H-benzo[d]imidazole-6-carboxamide]
Ex vivo effect on cytokine production such as IL-1, TNF and IL-6 [6]: inhibition

pIC50 (PDGFR): 6.30 to 6.52 | Activity against EGFR (EGFR): no activity
SMILES: COc1cc2ncc(-c3ccccc3)nc2cc1OC [Tyrphostin AG 1296, Quinoxaline, 6,7-dimethoxy-2-phenyl-]

pIC50 (MM cell lines): 5.70 to 8.30
SMILES: O=C(NC[C@H](O)CO)c1ccncc1Nc1ccc(I)cc1F [AS-703026, (S)—N-(2,3-dihydroxypropyl)-3-(2-fluoro-4-iodophenylamino) isonicotinamide]

pIC50 (CSF-1R): 7.82
SMILES: O=C(Nc1ccc(OC(F)(F)F)cc1)c1sccc1NCc1ccnc2ccccc12 [OSI-930]
Activity against PDGFRα/β, Flt-3 and Abl (PDGFRα/β, Flt-3 and Abl): low activity | Potency to Flt-1, c-Raf and Lck (Flt-1, c-Raf and Lck): also potent
